Publication PMC9184620, “TAS1553, a small molecule subunit interaction inhibitor of ribonucleotide reductase, exhibits antitumor activity by causing DNA replication stress” (Communications Biology, 2022)

Tested on: MV-4-11 xenograft tumors
Experiment: Intratumoral dATP and ATP pool in MV-4-11 xenograft tumors after single oral dose
Format: in vivo, rat
Details: 1 and 2 h post-administration, 50 mg/kg and 200 mg/kg single oral dose
Procedure: To determine whether TAS1553 achieved RNR inhibition in an in vivo model, we examined the effect of a single dose of orally administered TAS1553 on intratumoral dATP pool, DNA replication stress, and apoptosis in rats that were subcutaneously implanted with a xenograft of MV-4-11 cell line. […] The decline in the intratumoral dATP pool recovered 4 h after the administration of both doses. We also evaluated the DNA replication stress and apoptosis induction in tumors following TAS1553 administration. Consistent with the modulation of the dATP pool, the single administration of TAS1553 (50 mg/kg or more) caused the phosphorylation of Chk1 at Ser345 1 and 2 h post-administration. Furthermore, TAS1553 administration also led to induction in cleaved PARP and cleaved caspase-3 levels, following to Chk1 phosphorylation (Fig. 4d).
Cells were plated, cultured for 1 day, treated with the compound, and harvested. The collected cells were homogenized with 0.42 mol/L perchloric acid, including IS-dATP at 0.6 μmol/L and IS-ATP at 2.4 μmol/L as internal standards for dATP and ATP, respectively. At each time point, xenograft tumors were excised after single dosing of the test compound. The tissues were homogenized with 0.42 mol/L perchloric acid, including IS-dATP at 3 μmol/L as an internal standard for dATP and ATP. […] The aqueous layer collected after vortex and centrifugation was analyzed by LC-MS/MS. […]

**Q.** Cc1ccc(F)c([C@@H](C)[C@H](NS(=O)(=O)c2ccc(Cl)cc2C(N)=O)c2n[nH]c(=O)o2)c1C [TAS1553, 5-chloro-2-{N-[(1S,2R)-2-(6-fluoro-2,3-dimethylphenyl)-1-(5-oxo-4,5-dihydro-1,3,4-oxadiazol-2-yl)propyl]sulfamoyl}benzamide] was tested. Which “effect on intratumoral dATP pool” value did it give?
**A.** significant reduction
